Measurements reported in PMC12022103 (Scientific Reports, 2025).
Non-standard residues stand in square brackets, D forms with d. Residues, ends and D or L forms follow the SMILES beside them. No end group written: not given here.

Legend:
K. pneumoniae ATCC 13883 [1] = assay: Minimum inhibitory concentration (MIC), broth dilution; format: cell-based; conditions: for MIC, K. pneumoniae: K. pneumoniae ATCC 13883, MH II broth, 5 × 10^5 CFU/mL, 18–24 h, 37 °C, OD600, triplicate, highest number reported, detection limit <0.5 and >128 µM
Procedure: (§1) The panel of bacterial reference strains used in this work for assessment of synthetic peptide activity originated from the American Type Culture Collection (ATCC) and was obtained from the Diagnostic section at the Department of Microbiology, Oslo University Hospital. The strains used were as follows: E. coli ATCC 25922, K. pneumoniae ATCC 13883, A. baumannii ATCC 17978, S. aureus ATCC 29213, and E. faecalis ATCC 29212.
(§2) Bacterial strains were plated on cation-adjusted Mueller-Hinton (MH II) agar plates and incubated at 37 °C overnight. The day after single colonies were picked and resuspended in sterile-filtered saline (0.9%). The OD of each bacterial suspension was adjusted to McFarland standard 0.5 using a spectrophotometer (UV-1800, Shimadzu), and the suspension further diluted 1:100 in MH II broth, corresponding to 10^6 colony forming units (CFU) per mL. The inoculum suspension was used for MIC, MBC, time-kill and protease stability assessments as described below. To ensure correct inoculum sizes, 10 µL of the bacterial suspensions were diluted 2000-fold in sterile-filtered saline (0.9%) and 100 µL plated onto MH II agar plates. After overnight incubation at 37 °C, colonies were counted. If found to be outside the acceptable number (20–80 colonies per plate corresponding to ∼10^6 CFU/mL), results from further analyses were discarded.
(§3) The peptides were serially diluted (two-fold) directly in 96-well plates (Greiner, MICROPLATE, 96 WELL, PP, U-BOTTOM, NATURAL, 650261) containing MH II broth, corresponding to concentrations in the range 256–0.5 µM. An equal volume of bacterial suspension was added to each well, resulting in a final inoculum of 5 × 10^5 CFU/mL and final peptide concentrations of 128–0.25 µM. The 96-well plates were incubated for 18–24 h at 37 °C, after which the OD of each well was measured at 600 nm in a plate reader (Victor Nivo, Perkin-Elmer). The minimum inhibitory concentration (MIC) was estimated as the lowest concentration of peptide that produced OD600 measurements similar to the control wells containing no bacteria. The experiments were performed in triplicate. Two-fold variations in MIC values were often observed between replicates.

E. faecalis ATCC 29212 [2] = assay: as above; format: cell-based; conditions: for MIC, E. faecalis: E. faecalis ATCC 29212, MH II broth, 5 × 10^5 CFU/mL, 18–24 h, 37 °C, OD600, triplicate, highest number reported, detection limit <0.5 and >128 µM
Procedure: as §1, §2, §3

S. aureus ATCC 29213 [3] = assay: as above; format: cell-based; conditions: for MIC, S. aureus: S. aureus ATCC 29213, MH II broth, 5 × 10^5 CFU/mL, 18–24 h, 37 °C, OD600, triplicate, highest number reported, detection limit <0.5 and >128 µM
Procedure: as §1, §2, §3

E. coli ATCC 25922 [4] = assay: Frequency of resistance determination (p0 method); format: cell-based, Escherichia coli; conditions: E. coli ATCC 25922, 40 cultures, 4 × MIC, 24–48 h, colistin as reference, triplicate
Text: The method was based on the Fluctuation assay (p0 method; Luria and Delbrück) for determination of mutation rate[33],[34], and optimized for selection of mutants in liquid medium. Colistin sulfate (Thermo Scientific, 15575146) served as control in experimentation. Initially, the MIC of colistin and peptides was verified through broth dilution in 96-well plates (as detailed above). In order to account for potential phenotypic heterogeneity among colonies derived from the same frozen stock, multiple colonies of E. coli ATCC 25922 were picked and inoculated in 2 mL MHII broth overnight at 37°C with continuous shaking. The following day, aliquots of colistin and peptide solutions were prepared in MHII broth at working concentrations 20 times the MIC. […] The plates were incubated at 37 °C in a humidified box, and OD was measured at 600 nm using a microplate reader (Victor Nivo, Perkin-Elmer) after 0, 24 and 48 h of incubation. […]
To calculate the viable bacterial counts, the overnight culture was serially diluted 10-fold in MHII, after which 5 µl of the 10^− 3 – 10^− 9 dilutions were spotted onto MHII agar plates and incubated overnight at 37 °C. CFUs were counted the following day to determine CFU/mL of the overnight culture. […] The mutation rate, or frequency of resistance, was calculated using the following formula: […]

E. coli = assay: Cell morphology by phase contrast microscopy; format: cell-based, Escherichia coli; conditions: 10× MIC, 5 min exposure, preliminary
Procedure: To explore the potential correlation between general membrane destabilization and our FoR data, we conducted a brief preliminary examination of E. coli cell morphology following a pulsed exposure to our top four peptide candidates at 10× MIC. Cells were imaged by using phase contrast microscopy after 5 min of exposure. […] However, additional research using complementary techniques are necessary to conclusively characterize their killing mechanism.

E. coli ATCC 25922 [5] = assay: Minimum inhibitory concentration (MIC), broth dilution; format: cell-based, Escherichia coli; conditions: for MIC, E. coli: E. coli ATCC 25922, two-fold dilution in MH II broth, 5 × 10^5 CFU/mL, 18–24 h, 37 °C, OD600, triplicate, highest number reported, detection limit <0.5 and >128 µM
Procedure: as §1, §2, §3

A. baumannii ATCC 17978 [6] = assay: as above; format: cell-based; conditions: MH II broth, 5 × 10^5 CFU/mL, 18–24 h, 37 °C, OD600, triplicate, highest number reported, detection limit <0.5 and >128 µM
Procedure: as §1, §2, §3

E. coli ATCC 25922 [7] = assay: Minimum bactericidal concentration (MBC); format: cell-based, Escherichia coli; conditions: 5 µL from MIC wells plated on MH II agar, 37 °C overnight, no visible colonies, triplicate, highest number reported, detection limit <0.5 and >128 µM
Procedure: as §1, §2
(§4) In order to assess the minimum bactericidal concentration (MBC) of peptides, 5 µL from each well of the 96-well plate used for MIC analysis was plated onto MH II agar and incubated at 37 °C overnight. […] The experiments were performed in triplicate. Two-fold variations in MIC values were often observed between replicates.

K. pneumoniae ATCC 13883 [8] = assay: Minimum bactericidal concentration (MBC); format: cell-based; conditions: 5 µL from MIC wells plated on MH II agar, 37 °C overnight, no visible colonies, triplicate, highest number reported
Procedure: as §1, §2, §4

E. faecalis ATCC 29212 [9] = assay: Minimum bactericidal concentration (MBC); format: cell-based; conditions: 5 µL from MIC wells plated on MH II agar, 37 °C overnight, no visible colonies, triplicate, highest number reported
Procedure: as §1, §2, §4

S. aureus ATCC 29213 [10] = assay: Minimum bactericidal concentration (MBC); format: cell-based; conditions: 5 µL from MIC wells plated on MH II agar, 37 °C overnight, no visible colonies, triplicate, highest number reported
Procedure: as §1, §2, §4

A. baumannii ATCC 17978 [11] = assay: Minimum bactericidal concentration (MBC); format: cell-based; conditions: 5 µL from MIC wells plated on MH II agar, 37 °C overnight, no visible colonies, triplicate, highest number reported
Procedure: as §1, §2, §4

P. aeruginosa [12] = assay: Minimum bactericidal concentration (MBC); format: cell-based; conditions: 5 µL from MIC wells plated on MH II agar, 37 °C overnight, no visible colonies; triplicate, highest number reported
P. aeruginosa [13] = assay: Minimum inhibitory concentration (MIC), broth dilution; format: cell-based; conditions: MH II broth, 5 × 10^5 CFU/mL, 18–24 h, 37 °C, OD600; triplicate, highest number reported; detection limit <0.5 and >128 µM
Solubility of peptides = format: physicochemical; conditions: solvent as stated in the value
E. coli ATCC 25922 [14] = assay: Time-kill experiments; format: cell-based, Escherichia coli; conditions: E. coli ATCC 25922, at the MBC; detection limit 100 CFU/mL; triplicate
Procedure: as §2
Four Eppendorf tubes were set up containing 0.5 mL of E. coli inoculum, prepared as described above. To the tubes were added peptides corresponding to final concentrations of ½×MIC, MIC and 2×MIC (see Fig. 3). One tube served as growth control (no added peptide). Then, 50 µL of culture were sampled from the tubes at timepoints 0, 0.25, 0.5, 2, 5 and 24 h. […] The day after, CFU/mL was calculated based on colony counts and dilution factor. […]

CC[C@@H](C)[C@@H](NC(=O)[C@@H](CC(C)C)NC(=O)[C@@H](CCC(N)=O)NC(=O)[C@@H](CC(C)C)NC(=O)[C@H](NC(=O)[C@@H](C)NC(=O)[C@@H](CCCCN)NC(=O)[C@@H](CCCCN)NC(=O)[C@@H](CCCCN)NC(=O)[C@@H](CCCCN)NC(=O)[C@@H](CCCCN)NC(=O)[C@H](N)C(C)C)C(C)C)C(=O)N[C@H](CC(C)C)C(=O)N[C@H](CCCCN)C(=O)N[C@H](Cc1ccccc1)C(N)=O [D-1a-N10] (H-[dV][dK][dK][dK][dK][dK][dA][dV][dL][dQ][dL][dI][dL][dK][dF]-NH2; N-terminus assumed)
Fold improvement (lowering) of MIC compared to parent 1a-N10, K. pneumoniae (K. pneumoniae ATCC 13883 [1]; D-form versus all-L parent): 2 fold
Fold lowering of MIC compared to parent 1a-N10, E. faecalis (E. faecalis ATCC 29212 [2]; D-form versus all-L parent): 4 fold
Fold lowering of MIC compared to parent 1a-N10, S. aureus (S. aureus ATCC 29213 [3]; D-form versus all-L parent): 8 fold
Frequency of resistance (FoR) (in words) (E. coli ATCC 25922 [4]): eliminated mutagenicity
Membrane morphology of cells (in words) (E. coli): indications of changes in membrane morphology
Fold improvement (lowering) of MIC compared to parent 1a-N10, E. coli (E. coli ATCC 25922 [5]; D-form versus all-L parent): 2 fold

RRRRFVLRLILRLL-NH2 [2i-N12]
MIC, K. pneumoniae (K. pneumoniae ATCC 13883 [1]): 64 µM
MIC, E. faecalis (E. faecalis ATCC 29212 [2]): 64 µM
MIC, S. aureus (S. aureus ATCC 29213 [3]): 64 µM
MIC, A. baumannii (A. baumannii ATCC 17978 [6]): 128 µM
MBC, E. coli (E. coli ATCC 25922 [7]): 128 µM
MBC, K. pneumoniae (K. pneumoniae ATCC 13883 [8]): 128 µM
MBC, E. faecalis (E. faecalis ATCC 29212 [9]): 128 µM
MBC, S. aureus (S. aureus ATCC 29213 [10]): 128 µM
MBC, A. baumannii (A. baumannii ATCC 17978 [11]): 128 µM
MBC, P. aeruginosa (P. aeruginosa [12]): 128 µM
MIC, P. aeruginosa (P. aeruginosa [13]): 64 µM
MIC, E. coli (E. coli ATCC 25922 [5]): 64 µM

RRRRRRFVLRLILRLL-NH2 [2j-N12]
MIC, K. pneumoniae (K. pneumoniae ATCC 13883 [1]): 64 µM
MIC, E. faecalis (E. faecalis ATCC 29212 [2]): 32 µM
MIC, S. aureus (S. aureus ATCC 29213 [3]): 64 µM
MIC, A. baumannii (A. baumannii ATCC 17978 [6]): 64 µM
MBC, E. coli (E. coli ATCC 25922 [7]): 128 µM
MBC, K. pneumoniae (K. pneumoniae ATCC 13883 [8]): 64 µM
MBC, E. faecalis (E. faecalis ATCC 29212 [9]): 32 µM
MBC, S. aureus (S. aureus ATCC 29213 [10]): 64 µM
MBC, A. baumannii (A. baumannii ATCC 17978 [11]): 64 µM
MBC, P. aeruginosa (P. aeruginosa [12]): 64 µM
MIC, P. aeruginosa (P. aeruginosa [13]): 64 µM
MIC, E. coli (E. coli ATCC 25922 [5]): 64 µM

VKKKKKAVLQLILKF-NH2 [1a-N10]
Frequency of resistance (FoR) (in words) (E. coli ATCC 25922 [4]): low resistance frequencies
Membrane morphology of cells (in words) (E. coli): no explicit membrane defects
Solubility (in words) (Solubility of peptides): soluble in PBS alone
Time after which CFU/ml was below the detection limit (E. coli ATCC 25922 [14]): 0.5 h

VKKKKKAVLQLILKFLRRRR-NH2 [3b-N10]
MIC, K. pneumoniae (K. pneumoniae ATCC 13883 [1]): 16 µM
MIC, E. faecalis (E. faecalis ATCC 29212 [2]): 4 µM
MIC, S. aureus (S. aureus ATCC 29213 [3]): 8 µM
MIC, A. baumannii (A. baumannii ATCC 17978 [6]): 8 µM
MBC, E. coli (E. coli ATCC 25922 [7]): 16 µM
MBC, K. pneumoniae (K. pneumoniae ATCC 13883 [8]): 16 µM
MBC, E. faecalis (E. faecalis ATCC 29212 [9]): 4 µM
MBC, S. aureus (S. aureus ATCC 29213 [10]): 8 µM
MBC, A. baumannii (A. baumannii ATCC 17978 [11]): 8 µM
MBC, P. aeruginosa (P. aeruginosa [12]): 4 µM
MIC, P. aeruginosa (P. aeruginosa [13]): 4 µM
MIC, E. coli (E. coli ATCC 25922 [5]): 16 µM

VRRRRRAVLQLILRFL-NH2 [3a-N10]
MIC, K. pneumoniae (K. pneumoniae ATCC 13883 [1]): 32 µM
MIC, E. faecalis (E. faecalis ATCC 29212 [2]): 16 µM
MIC, S. aureus (S. aureus ATCC 29213 [3]): 32 µM
MIC, A. baumannii (A. baumannii ATCC 17978 [6]): 16 µM
MBC, E. coli (E. coli ATCC 25922 [7]): 32 µM
MBC, K. pneumoniae (K. pneumoniae ATCC 13883 [8]): 32 µM
MBC, E. faecalis (E. faecalis ATCC 29212 [9]): 16 µM
MBC, S. aureus (S. aureus ATCC 29213 [10]): 32 µM
MBC, A. baumannii (A. baumannii ATCC 17978 [11]): 16 µM
MBC, P. aeruginosa (P. aeruginosa [12]): 64 µM
MIC, P. aeruginosa (P. aeruginosa [13]): 64 µM
MIC, E. coli (E. coli ATCC 25922 [5]): 32 µM
